Experimental data reported in patent publication US20180153830A1, “SELECTIVE INHIBITORS OF UNDIFFERENTIATED CELLS” (Yissum Research Development Company of the Hebrew …, priority 2012, published 2018).

Assays:
[1] = tested on: non-pluripotent cell types (BJ-fibroblasts, HeLa, HepG2 and Kelly cells); assay: Methylene blue viability of non-pluripotent cells in embryonic stem cell medium; format: cell-based, human; settings: 20 μM, 72 hours
Experimental: (§1) For the high-throughput screens, relative cell number was determined using a CellTiter-Glo® Luminescent Cell Viability Assay as described hereinabove. Otherwise, relative cell numbers were determined by fixating the cells with 0.5% glutardialdehyde and staining with methylene blue dissolved in 0.1 M boric acid (pH 8.5). Color extraction was performed using 0.1 M hydrochloric acid, and the staining (which is proportional to cell number) was quantified by measuring absorbance at a wavelength of 650 nm.
In order to ascertain that the selectivity of PluriSin cytotoxicity is cell type-dependent rather than cell medium-dependent, four non-pluripotent cell types (BJ-fibroblasts, HeLa, HepG2 and Kelly cells) were cultured in human embryonic stem cell medium and exposed to PluriSIn #1 for 72 hours. Cell viability was then determined by a methylene blue assay, as described hereinabove.

[2] = tested on: transformed BJ fibroblasts; assay: Methylene blue viability, transformed BJ fibroblasts; format: cell-based, human; settings: up to 100 μM, 72 hours, 2% fetal bovine serum
Experimental: as §1
(§2) In one experiment, immortalized BJ fibroblasts served as differentiated cells and were compared with BJ fibroblasts induced to undergo cellular transformation, which served as their undifferentiated cancerous counterparts. […]
(§3) The differentiated and undifferentiated cells were exposed to PluriSIn #1 at concentrations of up to 100 μM for 72 hours under low (2%) fetal bovine serum conditions. Their viability was then measured using a methylene blue viability assay, as described hereinabove.

[3] = tested on: H9 stem cells; assay: Elimination of undifferentiated cells cultured in 6-well plates; format: cell-based, human; settings: 20 μM
Text: The PluriSIns were first tested in various culture conditions and exposure durations.

[4] = tested on: normal (immortalized) BJ fibroblasts; assay: Methylene blue viability, immortalized BJ fibroblasts; format: cell-based, human; settings: up to 100 μM, 72 hours, 2% fetal bovine serum
Experimental: as §1, §2, §3

[5] = tested on: differentiated SLGCs; assay: Methylene blue viability, differentiated SLGCs; format: cell-based; settings: up to 100 μM, 72 hours, 2% fetal bovine serum
Experimental: as §1
In a second experiment, undifferentiated stem-like glioma cells (SLGCs) were compared with SLGCs differentiated by monolayer adhesion and exposure to 1 μM retinoic acid for one week, in accordance with procedures described by Campos et al. [Clinical Cancer Research 16:2715-2728 (2010)]. Differentiation of SLGCs is associated with a reduction in tumorigenicity [Campos et al., Clinical Cancer Research 16:2715-2728 (2010)].
as §3

[6] = tested on: hPSCs; assay: hPSC viability after SCD1 inhibitors with or without oleic acid; format: cell-based, human; settings: 75 nM inhibitor, 100 μM oleic acid, 48 hours
Experimental: (§4) In order to determine whether hPSC viability indeed depends on functional SCD1 activity, hPSCs were exposed to 75 nM of the specific SCD1 inhibitors A939572 and CAY-10566 for 48 hours. Some samples were supplemented with 100 μM oleic acid in order to evaluate the effect of exogenous supplementation of oleic acid (a product of SCD1 activity) on cell death.

[7] = as above; format: cell-based, human; settings: human, human pluripotent stem cells (hPSCs), 75 nM, read-out: decrease in viability of hPSCs
Experimental: as §4

Row | Structure (SMILES) | viability of non-pluripotent cells cultured in embryonic stem cell medium [1] | cytotoxicity towards transformed BJ fibroblasts [2] | exposure required for complete elimination of undifferentiated cells [3] | effect on normal (immortalized) BJ fibroblasts [4] | effect on differentiated SLGCs [5] | rescue from SCD1 inhibitor-induced cell death by oleic acid [6] | cytotoxicity at 48 h, 75 nM [7]
1 | O=C(NNc1ccccc1)c1ccncc1 [PluriSIn #1, isonicotinic acid N′-phenylhydrazide] | no effect | highly cytotoxic | 48 h | little effect | no apparent effect | – | –
2 | CNC(=O)c1cccc(NC(=O)N2CCC(Oc3ccccc3Cl)CC2)c1 [A939572, 4-(2-chlorophenoxy)-N-(3-(methylcarbamoyl)-phenyl)piperidine-1-carboxamide, reference compound] | – | – | – | – | – | completely rescued | > 80%
